Results from US9681664B2, “Macrocyclic picolinamides as fungicides” (Dow Agrosciences LLC, priority 2012, dated 2017).
Read-outs that look alike come from different tables or passages of the source.

Experiments:
Assay type in all cases: in vivo
[1] = tested on: Phakopsora pachyrhizi; assay: Asian soybean rust (PHAKPA) disease control; conditions: topical, high volume
Procedure, shortened: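 Compounds in acetone diluted with nine volumes water containing 0.011% Tween 20, sprayed to run-off on two-week-old Williams 82 soybean seedlings, inoculated 3 days before or 1 day after treatment. Plants held 24 h in dark dew room at 22 °C, 100% RH, then at 23 °C; disease severity scored on sprayed leaves.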

[2] = tested on: Puccinia triticina; Synonym: Puccinia recondite f. sp. tritici; assay: Wheat brown rust (PUCCRT) disease control on wheat seedlings; conditions: Puccinia triticina; for pest or weed control at 121.5 g/ha: low volume application, 121.5 g/H
Procedure, shortened: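 Yuma wheat grown to first fully emerged leaf was inoculated with Puccinia triticina spore suspension either before or after fungicide treatment, held overnight at 22° C. and 100% RH in darkness, then kept at 24° C. Fungicide applied by booth sprayer to run-off (acetone/water, 110 ppm Triton X-100) or as EC by track spray.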

[3] = tested on: Blumeria graminis f. sp. hordei; Synonym: Erysiphe graminis f. sp. hordei; assay: Barley powdery mildew (ERYSGH) disease control; conditions: 24 h, 1 Day Protectant, high volume, read-out: Disease Control ERYSGH 1 DP
Procedure: Technical grades of materials were dissolved in acetone, which were then mixed with nine volumes of water containing 110 ppm Triton X-100. The fungicide solutions were applied onto wheat seedlings using an automated booth sprayer to run-off. All sprayed plants were allowed to air dry prior to further handling. All fungicides were evaluated using the aforementioned method for their activity vs. all target diseases. Wheat leaf blotch and brown rust activity were also evaluated using track spray applications, in which case the fungicides were formulated as EC formulations, containing 0.1% Trycol 5941 in the spray solutions. Barley seedlings (variety Harrington) were propagated in soil-less Metro mix, with each pot having 8 to 12 plants, and used in the test when first leaf was fully emerged. Test plants were inoculated by dusting with infected stock plants 24 hr after fungicide treatments. After inoculation the plants were kept in a greenhouse set at 20° C. for disease to develop. Fungicide formulation, application and disease assessment on the sprayed leaves followed the procedures as described in the Example A.

[4] = tested on: Cercospora beticola; assay: Leaf spot of sugar beets (CERCBE) disease control; conditions: 24 h, 1 Day Protectant, high volume, read-out: Disease Control CERCBE 1 DP
Procedure: Technical grades of materials were dissolved in acetone, which were then mixed with nine volumes of water containing 110 ppm Triton X-100. The fungicide solutions were applied onto wheat seedlings using an automated booth sprayer to run-off. All sprayed plants were allowed to air dry prior to further handling. All fungicides were evaluated using the aforementioned method for their activity vs. all target diseases. Wheat leaf blotch and brown rust activity were also evaluated using track spray applications, in which case the fungicides were formulated as EC formulations, containing 0.1% Trycol 5941 in the spray solutions. Sugar beet plants (variety HH88) were grown in soil-less Metro mix and trimmed regularly to maintain a uniform plant size prior to test. Plants were inoculated with a spore suspension 24 hr after fungicide treatments. Inoculated plants were kept in a dew chamber at 22° C. for 48 hr then incubated in a greenhouse set at 24° C. under a clear plastic hood with bottom ventilation until disease symptoms were fully expressed. Fungicide formulation, application and disease assessment on the sprayed leaves followed the procedures as described in the Example A.

[5] = tested on: Mycosphaerella graminicola; Anamorph: Septoria tritici; assay: Leaf blotch of wheat (SEPTTR) disease control on wheat seedlings; conditions: Zymoseptoria tritici; for pest or weed control at 121.5 g/ha: low volume application, 121.5 g/H
Procedure, shortened: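 Protective or curative format: Septoria tritici inoculation either preceded or followed fungicide application to first-leaf Yuma wheat. Severity scored 0–100%; control expressed versus untreated.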

[6] = tested on: Magnaporthe grisea; Anamorph: Pyricularia oryzae; assay: whole plant or invertebrate; conditions: 24 h, read-out: PYRIOR 1 DP disease control
[7] = tested on: Uncinula necator; assay: Grape powdery mildew (UNCINE) disease control; conditions: Erysiphe necator, 24 h, High volume application, 1 Day Protectant, read-out: UNCINE 1 DP disease control
Procedure: Technical grades of materials were dissolved in acetone, which were then mixed with nine volumes of water containing 110 ppm Triton X-100. The fungicide solutions were applied onto wheat seedlings using an automated booth sprayer to run-off. All sprayed plants were allowed to air dry prior to further handling. All fungicides were evaluated using the aforementioned method for their activity vs. all target diseases. Wheat leaf blotch and brown rust activity were also evaluated using track spray applications, in which case the fungicides were formulated as EC formulations, containing 0.1% Trycol 5941 in the spray solutions. Grape seedlings (variety Carignane) were grown in soil-less Metro mix, with one plant per pot, and used in the test when approximately one month old. Plants were inoculated 24 hr after fungicide treatment by shaking spores from infected leaves over test plants. Plants were maintained in a greenhouse set at 20° C. until disease was fully developed. Fungicide formulation, application and disease assessment on the sprayed leaves followed the procedures as described in the Example A.

[8] = 24 h, 1 Day Protectant, read-out: Disease Control PHAKPA 1DP
[9] = 72 h, 3 Day Curative, read-out: Disease Control PHAKPA 3DC
[10] = 24 h, Wheat Brown Rust, 1 Day Protectant, high volume application, read-out: Disease Control PUCCRT 1 DP 100 ppm
[11] = 24 h, Wheat Brown Rust, 1 Day Protectant, read-out: Disease Control PUCCRT 1 DP 121.5 g/H
[12] = 72 h, Wheat Brown Rust, 3 Day Curative, high volume application, read-out: Disease Control PUCCRT 3 DC 100 ppm
[13] = 72 h, Wheat Brown Rust, 3 Day Curative, read-out: Disease Control PUCCRT 3 DC 121.5 g/H
[14] = 24 h, Wheat Leaf Blotch, 1 Day Protectant, high volume application, read-out: Disease Control SEPTTR 1 DP 100 ppm
[15] = 24 h, Wheat Leaf Blotch, 1 Day Protectant, read-out: Disease Control SEPTTR 1 DP 121.5 g/H
[16] = 72 h, Wheat Leaf Blotch, 3 Day Curative, high volume application, read-out: Disease Control SEPTTR 3 DC 100 ppm
[17] = 72 h, Wheat Leaf Blotch, 3 Day Curative, read-out: Disease Control SEPTTR 3 DC 121.5 g/H

Compound | pest or weed control at 25 ppm [1, 8] | pest or weed control at 25 ppm [1, 9] | pest or weed control at 100 ppm ([2]; 24 h, High volume application, 1 Day Protectant, read-out: PUCCRT 1DP disease control) | pest or weed control at 100 ppm ([2]; 72 h, High volume application, 3 Day Curative, read-out: PUCCRT 3DC disease control) | pest or weed control at 100 ppm [3] | pest or weed control at 100 ppm [4] | pest or weed control at 100 ppm ([5]; 24 h, High volume application, 1 Day Protectant, read-out: SEPTTR 1DP disease control) | pest or weed control at 100 ppm ([5]; 72 h, High volume application, 3 Day Curative, read-out: SEPTTR 3DC disease control) | pest or weed control at 100 ppm [6] | pest or weed control at 100 ppm [7] | pest or weed control at 100 ppm [2, 10] | pest or weed control at 121.5 g/ha [2, 11] | pest or weed control at 100 ppm [2, 12] | pest or weed control at 121.5 g/ha [2, 13] | pest or weed control at 100 ppm [5, 14] | pest or weed control at 121.5 g/ha [5, 15] | pest or weed control at 100 ppm [5, 16] | pest or weed control at 121.5 g/ha [5, 17]
COc1ccnc(C(=O)N[C@H]2CCC[C@H](OCCCC(F)(F)F)[C@@H](OC3CCCC3)[C@H](C)OC2=O)c1OCOC(C)=O [F172] | 80 to 100% | 80 to 100% | 80 to 100% | 80 to 100% | 0 to 80% | 80 to 100% | 80 to 100% | 80 to 100% | 80 to 100% | 0 to 80% | – | – | – | – | – | – | – | –
CCOCC(=O)OCOc1c(OC)ccnc1C(=O)N[C@H]1CCC[C@H](Oc2ccccc2)[C@@H](OC(=O)C2CCCC2)[C@H](C)OC1=O [F237] | 80 to 100% | < 0% | – | – | 0 to 80% | 80 to 100% | – | – | 80 to 100% | 0 to 80% | 80 to 100% | 80 to 100% | 80 to 100% | 0 to 80% | 0 to 80% | < 0% | 0 to 80% | 0 to 80%
COc1ccnc(C(=O)N[C@H]2CCC[C@H](Oc3ccccc3)[C@@H](OC(=O)C3CC3)[C@H](C)OC2=O)c1OCOC(=O)C(C)C [F241] | 80 to 100% | 0 to 80% | – | – | 0 to 80% | 80 to 100% | – | – | 80 to 100% | 0 to 80% | 80 to 100% | 80 to 100% | 80 to 100% | 80 to 100% | 80 to 100% | < 0% | 80 to 100% | < 0%
COc1ccnc(C(=O)N[C@H]2CCC[C@H](Oc3ccccc3)[C@@H](OC(=O)C3CC3)[C@H](C)OC2=O)c1OC(C)=O [F242] | 80 to 100% | 0 to 80% | – | – | 0 to 80% | 80 to 100% | – | – | 80 to 100% | 0 to 80% | 80 to 100% | 80 to 100% | 80 to 100% | 0 to 80% | 80 to 100% | 0 to 80% | 80 to 100% | 0 to 80%
C=C(C)CO[C@H]1CCC[C@H](NC(=O)c2nccc(OC)c2OCOC(C)=O)C(=O)O[C@@H](C)[C@@H]1OC [F250] | 0 to 80% | < 0% | – | – | 0 to 80% | 0 to 80% | – | – | 80 to 100% | 0 to 80% | – | 0 to 80% | – | 80 to 100% | – | < 0% | – | 0 to 80%
